Laboratory results: patent publication US20020091107A1 (published 2002)

melting point [°C] | SMILES
70 | CC(=O)NC[C@H]1CN(c2ccc(/C=C3\C(=O)N(c4ccccc4)N=C3C(C)(C)C)cc2)C(=O)O1
193 to 195 | CC(=O)NC[C@H]1CN(c2ccc(/C=C3/C(=O)N(C)c4ccccc43)cc2)C(=O)O1
